The values that follow are results of earlier work, collected in paper PMC9441699 (Frontiers in Cellular and Infection Microbiology, 2022).

For one series, the system named is HcoV-OC43. Conditions: 2019.
For the next series, the system named is MERS-CoV. Conditions: 2019.
In series [1] the target is angiotensin converting enzyme from rabbit lung. On the set-up: method as in Yu et al., 2012. Conditions: 0.01-10 µM; ref Yu et al., 2012.
In the next series the test system is Vero cells. On the set-up: method as in Ho et al., 2007. Conditions: 0, 10, 50, 100, 200 and 400 µ/mL; ref Ho et al., 2007.
In series [2] the test system is HcoV-NL63 inLLC-MK2 cells. On the set-up: method as in Weng et al., 2019. Conditions: 0, 10, 50,100 µM/36h; ref Weng et al., 2019; read-out: Inhibition of viral cytopathicity IC50.
Series [3] deals with SARS-CoV. Conditions: read-out: EC50 SARS-CoV viral replication.
Series [4] has as its system interaction of S protein with ACE2. On the set-up: method as in Ho et al., 2007; dose or concentration left out as unconfirmed. Conditions: ref Ho et al., 2007.
The test system of series [5] is SARS-CoV. Conditions: ref Li et al., 2005.
In a further series the test system is RdRp Dengue virus. On the set-up: method as in Coulerie et al., 2013. Conditions: in vitro; ref Coulerie et al., 2013.
Setting [6] is: tanshinones from Salvia miltiorrhiza, read-out: IC50 against PLpro.
The mark [7] stands for this setting: 1, 2.5, 20 µM/16h, ref Jo et al., 2020, read-out: IC50.

Like-named read-outs stand apart in the source and are kept apart here.

As to `CC[C@H]1CN2CCc3cc(OC)c(OC)cc3[C@@H]2C[C@@H]1C[C@H]1NCCc2cc(OC)c(OC)cc21` [Emetine, reference compound], the EC50 (as a rule, the midpoint of the concentration-response curve) in the series with HcoV-OC43 (ref Weber and Opatz) is 0.3 µM; in the series on HcoV-NL63 (ref Weber and Opatz, 2019, read-out: EC50 HcoV-NL63), 1.43 µM; in the series on MERS-CoV (ref Weber and Opatz), 0.34 µM. With `O=C(/C=C/CCc1ccc(O)c(O)c1)CCc1ccc(O)c(O)c1` [Ligand L01, Hirsutenone], the IC50 – broadly, the concentration at which inhibition is half-maximal – in the series with SARS-CoV-PLpro (0-200 µM/60min, ref Park et al., 2012a, read-out: IC50) is 4.1 µM.

For `C=C(C)C(Cc1c(OC)ccc(C(=O)/C=C/c2ccc(O)cc2)c1O)OO` (stereo not shown) [Ligand L02, Xanthoangelol E], the IC50 with SARS-CoV-PLpro (0, 12.5, 25, 50 µM, ref Park et al., 2016, read-out: Inhibition of SARS-CoV-PLpro activity IC50) was 1.2 µM; in the series with SARS-CoV-3CLpro (0, 12.5, 25, 50 µM, ref Park et al., 2016, read-out: Inhibition of SARS-CoV-3CLpro activity IC50) it was 11.4 µM.

Consider `O=c1c(O)c(-c2cc(O)c(O)c(O)c2)oc2cc(O)cc(O)c12` [Ligand L03, Myricetin], for which the “inhibitory effect against SARS-CoV helicase” value in the series on SARS-CoV helicase is reported as “moderate inhibitory impacts”. Besides, the IC50 in [1] is 2.71 µM. In the case of `CC(C)=CCc1cc2c(cc1O)oc(=O)c1c3ccc(O)cc3oc21` [Ligand L04, Psoralidin], the IC50 in the series on SARS-CoV-PLpro (0-100 µM, ref Kim et al., 2014, read-out: IC50) is 4.2 µM. As to `Oc1cc(O)cc(Oc2c(O)cc(O)c3c2Oc2c(O)cc(Oc4c(O)cc(Oc5c(O)cc(O)c6c5Oc5c(O)cc(O)cc5O6)cc4O)cc2O3)c1` [Ligand L05, Dieckol], in the series on SARS-CoV-3CLpro (0-200 µM, ref Park et al., 2013, read-out: IC50), the half-maximal inhibitory concentration (IC50) is 2.7 µM.

With `COc1cc([C@H]2Oc3cc4c(c(O)c3C(=O)[C@@H]2O)CCC(C)(CCCC(C)(C)O)O4)ccc1O` (stereo partly shown) [Ligand L06, Tomentin E], the half-inhibitory concentration (IC50) in the series with SARS-CoV-PLpro (0, 6.25, 12.5, 25 µM, ref Cho et al., 2013, read-out: IC50) was 5 µM.

Regarding `Cc1cc(O)c2c(c1)C(=O)c1cc(O)cc(O)c1C2=O` [Ligand L07, Emodin], the IC50 in the series with Vero cells is 200 µM. Turning to `C[C@H]1COC2=C1C(=O)C(=O)c1c2ccc2c1CCCC2(C)C` [Ligand L08, Cryptotanshinone], the IC50 in the series with SARS-CoV-PLpro (0-200 µM/30min, ref Park et al., 2012b, read-out: IC50) was 0.8 µM. With `Cc1cccc2c3c(ccc12)C1=C(C(=O)C3=O)[C@@H](C)CO1` [Ligand L09, Dihydrotanshinone l,], the half-maximal inhibitory concentration (IC50) in the series on SARS-CoV-PLpro (setting [6]) is 4.9 µM; with SARS-CoV-3CLpro (0-200 µM/60min, ref Park et al., 2012b, read-out: IC50), 14.4 µM. As for `O=C(O)/C=C/c1ccc(O)c(O)c1` [Ligand L10, Caffeic acid], the IC50 in series [2] is 3.54 µM. Regarding `O=C(/C=C/c1ccc(O)c(O)c1)O[C@@H]1C[C@](O)(C(=O)O)C[C@@H](O)[C@H]1O` [Ligand L11, Chlorogenic acid], the concentration for half-maximal inhibition (IC50) in series [2] was 43.5 µM. `O=C(O)c1cc(O)c(O)c(O)c1` [Ligand L12, Gallic acid]: in [2], the IC50 was 71.5 µM. On to `O=c1cc(-c2ccc(O)cc2)oc2cc(O)c(O)c(O)c12` [Ligand L13, Scutellarein], for which the “inhibitory effect against SARS-CoV helicase” value in the series with SARS-CoV helicase is “moderate inhibitory impacts”. Moreover, the IC50 at SARS-CoV helicase (0.01-10 µM, In vitro, ref Yu et al., 2012) was 0.86 µM.

For `O=c1cc(-c2ccc(O)c(-c3c(O)cc(O)c4c(=O)cc(-c5ccc(O)cc5)oc34)c2)oc2cc(O)cc(O)c12` [Ligand L14, Amentoflavone], the IC50 in the series on SARS-CoV-3CLpro (0-300 µM, ref Ryu et al., 2010a, read-out: IC50) is 8.3 µM.

Turning to `COc1cc(/C=C/C(=O)NC(O)C(=O)c2ccc(O)cc2)ccc1O` (stereo not shown) [Ligand L15, Terrestrimine], in the series with SARS-CoV-PLpro (1,10,100,1000 µM, ref Song et al., 2014, read-out: IC50), the half-maximal inhibitory concentration (IC50) was 15.8 µM.

With `O=c1c(O)c(-c2ccc(O)cc2)oc2c(O)c(O)cc(O)c12` [Ligand L16, Herbacetin], the 50% inhibitory concentration (IC50) in the series with SARS-CoV-3CLpro (setting [7]) is 33.2 µM.

For the compound `COc1ccc(-c2cc(=O)c3c(O)c(OC)c(O[C@@H]4O[C@H](CO[C@@H]5O[C@@H](C)[C@H](O)[C@@H](O)[C@H]5O)[C@@H](O)[C@H](O)[C@H]4O)cc3o2)cc1` [Ligand L17, Pectolinarin], the concentration for half-maximal inhibition (IC50) in the series on SARS-CoV-3CLpro (setting [7]) was 37.8 µM. `C[C@@H]1O[C@@H](O[C@H]2[C@H](Oc3cc(O)c4c(=O)cc(-c5ccc(O)cc5)oc4c3)O[C@H](CO)[C@@H](O)[C@@H]2O)[C@H](O)[C@H](O)[C@H]1O` [Ligand L18, Rhoifolin]: the IC50 in the series on SARS-CoV-3CLpro (setting [7]) is 27.4 µM. For `COC(=O)[C@H]1[C@H]2C[C@@H]3c4[nH]c5cc(OC)ccc5c4CCN3C[C@H]2C[C@@H](OC(=O)c2cc(OC)c(OC)c(OC)c2)[C@@H]1OC` [Reserpine], the EC50 in the series on SARS-CoV [3] is 3.4 µM. As for `CC[C@H](CC[C@@H](C)[C@H]1CC[C@H]2[C@@H]3CC=C4C[C@@H](O)CC[C@]4(C)[C@H]3CC[C@]12C)C(C)C` [Sitosternol], in the series on HcoV-NL63 (ref Lin et al., 2005, read-out: EC50 against human coronavirus (HCoV-NL63)), the EC50 was 1210 µM.

As for `O=c1cc(-c2ccccc2)oc2cc(O)cc(O)c12` [chrysin], in series [4], the “effect on the interaction of S protein with ACE2” value is reported as “weak inhibitory effect”.

Take `O[C@H]1[C@H]2c3cc4c(cc3CN3CCC(=C[C@@H]1O)[C@H]23)OCO4` [lycorine]: the EC50 with SARS-CoV [5] (MTS test, read-out: EC50 against SARS-CoV) is 0.0157 ± 0.0012 µM; in the series on HcoV-OC43 (in vitro, ref Shen et al.) it was 0.15 µM; with HcoV-NL63 (in vitro, ref Shen et al., 2019, read-out: EC50 HcoV-NL63), 0.47 µM; in the series on MERS-CoV (in vitro, ref Shen et al.), 1.63 µM. The half-maximal inhibitory concentration (IC50) in the series with SARS-CoV [5] (Prasansuklab et al., 2020, read-out: IC50 anti-SARS-CoV) is 0.0157 µM.

On to `COc1cc(O)c2c(=O)cc(-c3ccc(O)cc3)oc2c1-c1cc(-c2cc(=O)c3c(O)cc(O)cc3o2)ccc1O` [sotetsuflavone], for which, in the series on RdRp Dengue virus, the 50% inhibitory concentration (IC50) is 0.16 µM.

For `Cc1coc2c1C(=O)C(=O)c1c-2ccc2c1CCCC2(C)C` [tanshinone IIA], in the series on SARS-CoV-PLpro (setting [6]), the IC50 is 1.6 µM. On to `COc1ccc(C(=O)/C=C/c2ccc(O)cc2)c(O)c1C/C=C(\C)CCC=C(C)C` [xanthoangelol F], for which the concentration for half-maximal inhibition (IC50) in the series on SARS-CoV-PLpro (noncompetitive inhibition, ref Park et al., 2016, read-out: IC50 PLpro) is 5.6 µM.

Take curcumin: in the series on SARS-CoV-PLpro (diarylheptanoids, ref Park et al., 2012a, read-out: IC50 PLpro), the IC50 is 5.7 µM.
